Reference: ChEMBL document CHEMBL3611970, “Synthesis and evaluation of isatin-β-thiosemicarbazones as novel agents against antibiotic-resistant Gram-positive bacterial species” (2015)
Converted amounts (≈) assume the structure as drawn.

How the values were obtained:
Assay type in all cases: functional
[1] = tested on: Pseudomonas aeruginosa; experiment: Antimicrobial activity against Pseudomonas aeruginosa PAO1 after 16 hrs by broth microdilution method; settings: PAO1, 16 h
[2] = tested on: Staphylococcus aureus; experiment: Antimicrobial activity against methicillin-resistant Staphylococcus aureus 309-8 clinical isolate after 16 hrs by broth microdilution method; settings: 309-8, 16 h
[3] = tested on: Staphylococcus aureus; experiment: Antimicrobial activity against methicillin-resistant Staphylococcus aureus 8-21 clinical isolate after 16 hrs by broth microdilution method; settings: 8-21, 16 h
[4] = tested on: Staphylococcus aureus; experiment: Antimicrobial activity against methicillin-resistant Staphylococcus aureus 6-42 clinical isolate after 16 hrs by broth microdilution method; settings: 6-42, 16 h
[5] = tested on: Staphylococcus aureus; experiment: Antimicrobial activity against methicillin-resistant Staphylococcus aureus 309-3 clinical isolate after 16 hrs by broth microdilution method; settings: 309-3, 16 h
[6] = tested on: Bacillus spizizenii; experiment: Antimicrobial activity against Bacillus subtilis ATCC 6633 after 16 hrs by broth microdilution method; settings: ATCC 6633, 16 h
[7] = tested on: Staphylococcus aureus; experiment: Antimicrobial activity against methicillin-resistant Staphylococcus aureus 8-24 clinical isolate after 16 hrs by broth microdilution method; settings: 8-24, 16 h
[8] = tested on: Staphylococcus aureus; experiment: Antimicrobial activity against methicillin-resistant Staphylococcus aureus 309-7 clinical isolate after 16 hrs by broth microdilution method; settings: 309-7, 16 h
[9] = tested on: Staphylococcus aureus; experiment: Antimicrobial activity against methicillin-resistant Staphylococcus aureus 6281 clinical isolate after 16 hrs by broth microdilution method; settings: Staphylococcus aureus, 6281, 16 h
[10] = tested on: Klebsiella pneumoniae; experiment: Antimicrobial activity against Klebsiella pneumoniae KP-249 clinical isolate after 16 hrs by broth microdilution method; settings: KP-249, 16 h
[11] = tested on: Staphylococcus aureus; experiment: Antimicrobial activity against methicillin-resistant Staphylococcus aureus 309-1 clinical isolate after 16 hrs by broth microdilution method; settings: 309-1, 16 h
[12] = tested on: Staphylococcus aureus; experiment: Antimicrobial activity against methicillin-resistant Staphylococcus aureus 309-6 clinical isolate after 16 hrs by broth microdilution method; settings: 309-6, 16 h
[13] = tested on: Staphylococcus aureus; experiment: Antimicrobial activity against Staphylococcus aureus ATCC 6538 after 16 hrs by broth microdilution method; settings: ATCC 6538, 16 h
[14] = tested on: Staphylococcus aureus; experiment: Antimicrobial activity against methicillin-resistant Staphylococcus aureus Chaoyang clinical isolate after 16 hrs by broth microdilution method
[15] = tested on: Staphylococcus aureus; experiment: Antimicrobial activity against methicillin-resistant Staphylococcus aureus 309-4 clinical isolate after 16 hrs by broth microdilution method; settings: 309-4, 16 h
[16] = tested on: Enterococcus faecalis; experiment: Antimicrobial activity against vancomycin-susceptible Enterococcus faecalis after 16 hrs by broth microdilution method
[17] = tested on: Enterococcus faecalis; experiment: Antimicrobial activity against Enterococcus faecalis VRE-309 after 16 hrs by broth microdilution method; settings: VRE-309, 16 h

Cc1ccc(NC(=S)N/N=C2\C(=O)Nc3c(Cl)cccc32)cc1
MIC [1]: > 100 µg/mL
MIC [2]: 0.78 µg/mL (≈ 2.26 µM)
MIC [3]: 0.78 µg/mL (≈ 2.26 µM)
MIC [4]: 0.78 µg/mL (≈ 2.26 µM)
MIC [5]: 0.78 µg/mL (≈ 2.26 µM)
MIC [6]: ≤ 0.78 µg/mL
MIC [7]: 1.56 µg/mL (≈ 4.52 µM)
MIC [8]: 0.78 µg/mL (≈ 2.26 µM)
MIC [9]: 1.56 µg/mL (≈ 4.52 µM)
MIC [10]: > 100 µg/mL
MIC [11]: 0.78 µg/mL (≈ 2.26 µM)
MIC [12]: 1.56 µg/mL (≈ 4.52 µM)
MIC [13]: 1.56 µg/mL (≈ 4.52 µM)
MIC [14]: 0.39 µg/mL (≈ 1.13 µM)
MIC [15]: 0.78 µg/mL (≈ 2.26 µM)
MIC [16]: 6.25 µg/mL (≈ 18.1 µM)
MIC [17]: 3.12 µg/mL (≈ 9.05 µM)

O=C1Nc2c(I)cccc2/C1=N/NC(=S)Nc1ccc(Cl)cc1
MIC [1]: > 100 µg/mL
MIC [2]: 1.56 µg/mL (≈ 3.42 µM)
MIC [3]: 1.56 µg/mL (≈ 3.42 µM)
MIC [4]: 1.56 µg/mL (≈ 3.42 µM)
MIC [5]: 1.56 µg/mL (≈ 3.42 µM)
MIC [6]: ≤ 0.78 µg/mL
MIC [7]: 1.56 µg/mL (≈ 3.42 µM)
MIC [8]: 0.78 µg/mL (≈ 1.71 µM)
MIC [9]: 3.12 µg/mL (≈ 6.83 µM)
MIC [10]: > 100 µg/mL
MIC [11]: 1.56 µg/mL (≈ 3.42 µM)
MIC [12]: 3.12 µg/mL (≈ 6.83 µM)
MIC [13]: 1.56 µg/mL (≈ 3.42 µM)
MIC [14]: 0.78 µg/mL (≈ 1.71 µM)
MIC [15]: 0.78 µg/mL (≈ 1.71 µM)
MIC [16]: 6.25 µg/mL (≈ 13.7 µM)
MIC [17]: 3.12 µg/mL (≈ 6.83 µM)

O=C1Nc2c(Br)cccc2/C1=N/NC(=S)Nc1ccc(Br)cc1
MIC [1]: > 100 µg/mL
MIC [2]: 1.56 µg/mL (≈ 3.44 µM)
MIC [3]: 1.56 µg/mL (≈ 3.44 µM)
MIC [4]: 0.78 µg/mL (≈ 1.72 µM)
MIC [5]: 1.56 µg/mL (≈ 3.44 µM)
MIC [6]: 1.56 µg/mL (≈ 3.44 µM)
MIC [7]: 1.56 µg/mL (≈ 3.44 µM)
MIC [8]: 0.78 µg/mL (≈ 1.72 µM)
MIC [9]: 3.12 µg/mL (≈ 6.87 µM)
MIC [10]: > 100 µg/mL
MIC [11]: 1.56 µg/mL (≈ 3.44 µM)
MIC [12]: 1.56 µg/mL (≈ 3.44 µM)
MIC [13]: 3.12 µg/mL (≈ 6.87 µM)
MIC [14]: 0.39 µg/mL (≈ 0.859 µM)
MIC [15]: 0.78 µg/mL (≈ 1.72 µM)
MIC [16]: 3.12 µg/mL (≈ 6.87 µM)
MIC [17]: 1.56 µg/mL (≈ 3.44 µM)

O=C1Nc2c(Br)cccc2/C1=N/NC(=S)Nc1cccc(F)c1
MIC [1]: > 100 µg/mL
MIC [2]: 0.78 µg/mL (≈ 1.98 µM)
MIC [3]: 0.78 µg/mL (≈ 1.98 µM)
MIC [4]: 0.78 µg/mL (≈ 1.98 µM)
MIC [5]: 0.78 µg/mL (≈ 1.98 µM)
MIC [6]: ≤ 0.78 µg/mL
MIC [7]: 0.78 µg/mL (≈ 1.98 µM)
MIC [8]: 0.39 µg/mL (≈ 0.992 µM)
MIC [9]: 1.56 µg/mL (≈ 3.97 µM)
MIC [10]: > 100 µg/mL
MIC [11]: 0.78 µg/mL (≈ 1.98 µM)
MIC [12]: 1.56 µg/mL (≈ 3.97 µM)
MIC [13]: 1.56 µg/mL (≈ 3.97 µM)
MIC [14]: 0.39 µg/mL (≈ 0.992 µM)
MIC [15]: 0.78 µg/mL (≈ 1.98 µM)
MIC [16]: 3.12 µg/mL (≈ 7.93 µM)
MIC [17]: 1.56 µg/mL (≈ 3.97 µM)

O=C1Nc2c(F)cccc2/C1=N/NC(=S)Nc1ccc(F)cc1
MIC [1]: > 100 µg/mL
MIC [2]: 1.56 µg/mL (≈ 4.69 µM)
MIC [3]: 1.56 µg/mL (≈ 4.69 µM)
MIC [4]: 1.56 µg/mL (≈ 4.69 µM)
MIC [5]: 1.56 µg/mL (≈ 4.69 µM)
MIC [6]: 1.56 µg/mL (≈ 4.69 µM)
MIC [7]: 1.56 µg/mL (≈ 4.69 µM)
MIC [8]: 1.56 µg/mL (≈ 4.69 µM)
MIC [9]: 3.12 µg/mL (≈ 9.39 µM)
MIC [10]: > 100 µg/mL
MIC [11]: 1.56 µg/mL (≈ 4.69 µM)
MIC [12]: 3.12 µg/mL (≈ 9.39 µM)
MIC [13]: 1.56 µg/mL (≈ 4.69 µM)
MIC [14]: 0.78 µg/mL (≈ 2.35 µM)
MIC [15]: 1.56 µg/mL (≈ 4.69 µM)
MIC [16]: 3.12 µg/mL (≈ 9.39 µM)
MIC [17]: 3.12 µg/mL (≈ 9.39 µM)

O=C1Nc2c(Cl)cccc2/C1=N/NC(=S)Nc1ccccc1
MIC [1]: > 100 µg/mL
MIC [2]: 1.56 µg/mL (≈ 4.72 µM)
MIC [3]: 3.12 µg/mL (≈ 9.43 µM)
MIC [4]: 3.12 µg/mL (≈ 9.43 µM)
MIC [5]: 6.25 µg/mL (≈ 18.9 µM)
MIC [6]: ≤ 0.78 µg/mL
MIC [7]: 1.56 µg/mL (≈ 4.72 µM)
MIC [8]: 0.78 µg/mL (≈ 2.36 µM)
MIC [9]: 1.56 µg/mL (≈ 4.72 µM)
MIC [10]: > 100 µg/mL
MIC [11]: 6.25 µg/mL (≈ 18.9 µM)
MIC [12]: 6.25 µg/mL (≈ 18.9 µM)
MIC [13]: 1.56 µg/mL (≈ 4.72 µM)
MIC [14]: 0.78 µg/mL (≈ 2.36 µM)
MIC [15]: 1.56 µg/mL (≈ 4.72 µM)
MIC [16]: 6.25 µg/mL (≈ 18.9 µM)
MIC [17]: 3.12 µg/mL (≈ 9.43 µM)

Cc1ccccc1NC(=S)N/N=C1\C(=O)Nc2c(F)cccc21
MIC [1]: > 100 µg/mL
MIC [2]: 1.56 µg/mL (≈ 4.75 µM)
MIC [3]: 1.56 µg/mL (≈ 4.75 µM)
MIC [4]: 1.56 µg/mL (≈ 4.75 µM)
MIC [5]: 3.12 µg/mL (≈ 9.5 µM)
MIC [6]: ≤ 0.78 µg/mL
MIC [7]: 1.56 µg/mL (≈ 4.75 µM)
MIC [8]: 1.56 µg/mL (≈ 4.75 µM)
MIC [9]: 3.12 µg/mL (≈ 9.5 µM)
MIC [10]: > 100 µg/mL
MIC [11]: 1.56 µg/mL (≈ 4.75 µM)
MIC [12]: 3.12 µg/mL (≈ 9.5 µM)
MIC [13]: 3.12 µg/mL (≈ 9.5 µM)
MIC [14]: 1.56 µg/mL (≈ 4.75 µM)
MIC [15]: 1.56 µg/mL (≈ 4.75 µM)
MIC [16]: 6.25 µg/mL (≈ 19 µM)
MIC [17]: 6.25 µg/mL (≈ 19 µM)

Cc1ccc(NC(=S)N/N=C2\C(=O)Nc3c(Br)cccc32)cc1
MIC [1]: > 100 µg/mL
MIC [2]: 0.78 µg/mL (≈ 2 µM)
MIC [3]: 0.78 µg/mL (≈ 2 µM)
MIC [4]: 0.78 µg/mL (≈ 2 µM)
MIC [5]: 0.78 µg/mL (≈ 2 µM)
MIC [6]: ≤ 0.78 µg/mL
MIC [7]: 1.56 µg/mL (≈ 4.01 µM)
MIC [8]: 0.78 µg/mL (≈ 2 µM)
MIC [9]: 3.12 µg/mL (≈ 8.01 µM)
MIC [10]: > 100 µg/mL
MIC [11]: 0.78 µg/mL (≈ 2 µM)
MIC [12]: 1.56 µg/mL (≈ 4.01 µM)
MIC [13]: 1.56 µg/mL (≈ 4.01 µM)
MIC [14]: 0.39 µg/mL (≈ 1 µM)
MIC [15]: 0.78 µg/mL (≈ 2 µM)
MIC [16]: > 100 µg/mL
MIC [17]: > 100 µg/mL
